Legend:
[1] = target: BRM (Homo sapiens, UniProt P51531); experiment: ATPase catalytic activity assay of BRM (ADP-Glo); assay type: biochemical; settings: for IC50: read-out: BRM IC50 (μM)*
Outline: (§1)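 In vitro biochemical ATPase assay; product ADP detected after removing leftover ATP and reconverting ADP to ATP for a luciferase signal.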

[2] = target: BRG-1 (Homo sapiens, UniProt P51532); experiment: ATPase catalytic activity assay of BRG-1 (ADP-Glo); assay type: biochemical; settings: ATPase catalytic activity, ADP-Glo; for IC50: read-out: BRG1 IC50 (μM)*; for Emax: read-out: BRG1 Max % Inhibition
Outline: as §1

Sequence of BRM (P51531 whole entry): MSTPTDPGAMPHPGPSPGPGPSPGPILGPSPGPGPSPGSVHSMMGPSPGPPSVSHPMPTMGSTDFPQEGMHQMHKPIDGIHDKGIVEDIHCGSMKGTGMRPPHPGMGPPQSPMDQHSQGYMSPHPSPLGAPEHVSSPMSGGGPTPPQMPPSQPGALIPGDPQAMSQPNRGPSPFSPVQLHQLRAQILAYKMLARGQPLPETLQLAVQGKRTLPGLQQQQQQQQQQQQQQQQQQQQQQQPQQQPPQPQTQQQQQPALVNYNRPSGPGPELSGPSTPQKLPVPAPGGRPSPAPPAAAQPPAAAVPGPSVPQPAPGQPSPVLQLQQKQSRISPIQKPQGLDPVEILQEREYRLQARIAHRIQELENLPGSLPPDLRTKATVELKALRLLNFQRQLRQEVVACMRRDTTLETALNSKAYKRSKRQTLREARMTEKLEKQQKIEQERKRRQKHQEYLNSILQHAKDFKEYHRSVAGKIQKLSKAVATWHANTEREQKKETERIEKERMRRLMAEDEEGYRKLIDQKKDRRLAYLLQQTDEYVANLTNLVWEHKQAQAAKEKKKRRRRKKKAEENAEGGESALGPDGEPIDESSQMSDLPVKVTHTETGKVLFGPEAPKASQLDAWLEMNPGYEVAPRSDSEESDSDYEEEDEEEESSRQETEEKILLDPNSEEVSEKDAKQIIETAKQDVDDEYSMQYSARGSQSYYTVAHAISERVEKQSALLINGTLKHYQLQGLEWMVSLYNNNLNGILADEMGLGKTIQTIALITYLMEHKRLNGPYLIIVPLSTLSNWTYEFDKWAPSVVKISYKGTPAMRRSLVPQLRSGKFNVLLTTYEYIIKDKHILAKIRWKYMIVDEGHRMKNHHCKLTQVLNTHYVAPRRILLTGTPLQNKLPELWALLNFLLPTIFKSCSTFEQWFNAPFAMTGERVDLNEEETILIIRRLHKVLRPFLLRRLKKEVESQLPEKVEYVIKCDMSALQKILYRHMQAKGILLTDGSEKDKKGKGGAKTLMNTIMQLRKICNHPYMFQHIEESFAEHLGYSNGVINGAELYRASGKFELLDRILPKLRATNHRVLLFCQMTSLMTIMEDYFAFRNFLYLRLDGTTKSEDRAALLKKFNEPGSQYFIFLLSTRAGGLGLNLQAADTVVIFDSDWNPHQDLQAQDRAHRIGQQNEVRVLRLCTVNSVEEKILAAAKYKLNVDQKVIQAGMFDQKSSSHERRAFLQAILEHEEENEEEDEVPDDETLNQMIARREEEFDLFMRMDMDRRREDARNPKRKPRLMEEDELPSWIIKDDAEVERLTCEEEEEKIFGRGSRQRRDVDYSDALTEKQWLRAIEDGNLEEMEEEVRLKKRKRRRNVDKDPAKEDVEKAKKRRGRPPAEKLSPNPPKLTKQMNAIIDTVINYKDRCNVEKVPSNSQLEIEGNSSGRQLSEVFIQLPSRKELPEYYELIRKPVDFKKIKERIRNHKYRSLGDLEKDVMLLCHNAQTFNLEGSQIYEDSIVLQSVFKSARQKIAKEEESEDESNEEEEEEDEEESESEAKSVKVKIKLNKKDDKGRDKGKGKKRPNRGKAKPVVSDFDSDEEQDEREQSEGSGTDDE
Sequence of BRG-1 (P51532 whole entry): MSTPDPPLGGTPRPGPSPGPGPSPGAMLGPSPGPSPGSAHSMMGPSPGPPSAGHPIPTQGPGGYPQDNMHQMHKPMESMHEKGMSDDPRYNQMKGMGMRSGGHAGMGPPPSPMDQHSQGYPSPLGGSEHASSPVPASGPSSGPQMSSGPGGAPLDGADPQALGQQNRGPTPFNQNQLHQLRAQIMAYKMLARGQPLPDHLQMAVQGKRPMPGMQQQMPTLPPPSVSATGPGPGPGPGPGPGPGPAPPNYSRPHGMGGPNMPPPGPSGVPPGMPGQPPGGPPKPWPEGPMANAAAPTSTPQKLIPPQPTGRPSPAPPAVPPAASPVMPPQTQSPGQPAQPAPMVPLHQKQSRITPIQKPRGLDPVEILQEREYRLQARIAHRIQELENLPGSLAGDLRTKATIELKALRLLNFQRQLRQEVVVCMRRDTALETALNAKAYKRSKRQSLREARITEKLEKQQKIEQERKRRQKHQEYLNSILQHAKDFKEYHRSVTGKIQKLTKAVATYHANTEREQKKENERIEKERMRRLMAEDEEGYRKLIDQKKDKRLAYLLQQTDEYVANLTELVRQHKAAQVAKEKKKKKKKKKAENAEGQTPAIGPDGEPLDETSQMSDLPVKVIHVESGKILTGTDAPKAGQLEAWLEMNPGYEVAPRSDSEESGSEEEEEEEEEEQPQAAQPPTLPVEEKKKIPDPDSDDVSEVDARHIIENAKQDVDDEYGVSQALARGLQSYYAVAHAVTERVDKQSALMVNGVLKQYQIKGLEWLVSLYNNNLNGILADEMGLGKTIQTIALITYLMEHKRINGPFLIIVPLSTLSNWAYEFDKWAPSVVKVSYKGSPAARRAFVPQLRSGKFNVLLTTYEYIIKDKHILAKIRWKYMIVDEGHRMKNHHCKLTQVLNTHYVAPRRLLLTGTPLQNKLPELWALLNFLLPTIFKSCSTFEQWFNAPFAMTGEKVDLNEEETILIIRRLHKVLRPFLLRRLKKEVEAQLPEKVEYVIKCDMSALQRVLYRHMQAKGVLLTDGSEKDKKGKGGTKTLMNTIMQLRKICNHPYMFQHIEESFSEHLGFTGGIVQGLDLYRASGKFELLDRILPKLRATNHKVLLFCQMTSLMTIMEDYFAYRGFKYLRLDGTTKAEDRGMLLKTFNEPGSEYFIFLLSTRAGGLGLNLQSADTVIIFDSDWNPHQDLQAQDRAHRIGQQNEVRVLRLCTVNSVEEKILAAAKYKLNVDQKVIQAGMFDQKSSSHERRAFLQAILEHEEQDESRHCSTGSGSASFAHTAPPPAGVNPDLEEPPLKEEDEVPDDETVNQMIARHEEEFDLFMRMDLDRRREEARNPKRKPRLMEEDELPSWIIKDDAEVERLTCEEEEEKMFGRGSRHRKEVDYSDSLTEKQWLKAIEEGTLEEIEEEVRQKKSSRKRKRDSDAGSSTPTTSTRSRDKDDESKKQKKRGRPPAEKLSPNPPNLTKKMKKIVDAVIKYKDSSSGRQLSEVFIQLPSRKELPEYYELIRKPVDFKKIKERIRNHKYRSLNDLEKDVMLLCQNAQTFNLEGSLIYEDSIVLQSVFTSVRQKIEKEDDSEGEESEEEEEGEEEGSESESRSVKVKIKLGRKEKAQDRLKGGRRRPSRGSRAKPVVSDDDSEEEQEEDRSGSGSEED

Compound	BRM Max % Inhibition [1] [%]	IC50 [1] [µM]	IC50 [2] [µM]	Emax [2] [%]	BRG1 Max % Inhibition [2] [%]
COC[C@H](NC(=O)c1cccc(C(C)(C)CN)c1)C(=O)Nc1nc(-c2cccc(-c3ccnc(C)c3)c2)cs1 [Compound 68, (S)-3-(1-amino-2-methylpropan-2-yl)-N-(3-methoxy-1-((4-(3-(2-methylpyridin-4-yl)phenyl)thiazol-2-yl)amino)-1-oxopropan-2-yl)benzamide]	>95	0.1 to 1	0.1 to 1	> 90	
Cn1ccc(-c2cccc(-c3csc(NC(=O)CNC(=O)c4cccc(C(C)(C)CN)c4)n3)c2)n1 [Compound 69, 3-(1-amino-2-methylpropan-2-yl)-N-(2-((4-(3-(1-methyl-1H-pyrazol-3-yl)phenyl)thiazol-2-yl)amino)-2-oxoethyl)benzamide]	>70	0.1 to 1	> 5	> 30	
Cc1ccc(C(=O)NCC(=O)Nc2nc(-c3cccc(-c4ccn(C)n4)c3)cs2)cc1C(C)(C)CN [Compound 70, 3-(1-amino-2-methylpropan-2-yl)-4-methyl-N-(2-((4-(3-(1-methyl-1H-pyrazol-3-yl)phenyl)thiazol-2-yl)amino)-2-oxoethyl)benzamide]	>95	0.1 to 1	> 5	> 50	
CCc1ccc(C(=O)NCC(=O)Nc2nc(-c3cccc(-c4ccn(C)n4)c3)cs2)cc1C(C)(C)CN [Compound 71, 3-(1-amino-2-methylpropan-2-yl)-4-ethyl-N-(2-((4-(3-(1-methyl-1H-pyrazol-3-yl)phenyl)thiazol-2-yl)amino)-2-oxoethyl)benzamide]	>70	1 to 5	> 5	> 30	
NCC1(c2cccc(C(=O)NCC(=O)Nc3nc(-c4cccc(-c5ccncc5)c4)cs3)c2)CC1 [Compound 72, 3-(1-(aminomethyl)cyclopropyl)-N-(2-oxo-2-((4-(3-(pyridin-4-yl)phenyl)thiazol-2-yl)amino)ethyl)benzamide]	>80	0.1 to 1	> 5	> 50	
CC(C)(CO)c1cccc(C(=O)NCC(=O)Nc2nc(-c3cccc(-c4ccncc4)c3)cs2)c1 [Compound 73, 3-(1-hydroxy-2-methylpropan-2-yl)-N-(2-oxo-2-((4-(3-(pyridin-4-yl)phenyl)thiazol-2-yl)amino)ethyl)benzamide]	>95	< 0.1	0.1 to 1	> 80	
Cc1cc(C(=O)NCC(=O)Nc2nc(-c3cccc(-c4ccncc4)c3)cs2)cc(C(C)(C)C#N)c1C [Compound 75, 3-(2-cyanopropan-2-yl)-4,5-dimethyl-N-(2-oxo-2-((4-(3-(pyridin-4-yl)phenyl)thiazol-2-yl)amino)ethyl)benzamide]	>80	0.1 to 1	> 5	< 30	
CC1(C#N)CCc2ccc(C(=O)NCC(=O)Nc3nc(-c4cccc(-c5ccncc5)c4)cs3)cc21 (stereo not shown) [Compound 76, 3-cyano-3-methyl-N-(2-oxo-2-((4-(3-(pyridin-4-yl)phenyl)thiazol-2-yl)amino)ethyl)-2,3-dihydro-1H-indene-5-carboxamide]	>95	< 0.1	< 0.1	> 80	
CC(C)(O)c1cccc(C(=O)NCC(=O)Nc2nc(-c3cccc(-c4ccncc4)c3)cs2)c1 [Compound 77]	>90	0.1 to 1	0.1 to 1	> 80	
CC(O)(c1cccc(C(=O)NCC(=O)Nc2nc(-c3cccc(-c4ccncc4)c3)cs2)c1)C(F)(F)F (stereo not shown) [Compound 78, N-(2-oxo-2-((4-(3-(pyridin-4-yl)phenyl)thiazol-2-yl)amino)ethyl)-3-(1,1,1-trifluoro-2-hydroxypropan-2-yl)benzamide]	>80	0.1 to 1	1 to 5	> 40	
CCC(C)(O)c1cccc(C(=O)NCC(=O)Nc2nc(-c3cccc(-c4ccncc4)c3)cs2)c1 (stereo not shown) [Compound 79, 3-(2-hydroxybutan-2-yl)-N-(2-oxo-2-((4-(3-(pyridin-4-yl)phenyl)thiazol-2-yl)amino)ethyl)benzamide]	>70	0.1 to 1	0.1 to 1	> 50	
CC1(c2cccc(C(=O)NCC(=O)Nc3nc(-c4cccc(-c5ccncc5)c4)cs3)c2)CCNC1=O (stereo not shown) [Compound 82, 3-(3-methyl-2-oxopyrrolidin-3-yl)-N-(2-oxo-2-((4-(3-(pyridin-4-yl)phenyl)thiazol-2-yl)amino)ethyl)benzamide]	>95	0.1 to 1	0.1 to 1	> 90	
CC(C)(/C(N)=N\O)c1cccc(C(=O)NCC(=O)Nc2nc(-c3cccc(-c4ccncc4)c3)cs2)c1 [Compound 83, (E)-3-(1-amino-1-(hydroxyimino)-2-methylpropan-2-yl)-N-(2-oxo-2-((4-(3-(pyridin-4-yl)phenyl)thiazol-2-yl)amino)ethyl)benzamide]	>90	1 to 5	> 5	> 50	
CC(C)(C(N)=O)c1cccc(C(=O)NCC(=O)Nc2nc(-c3cccc(-c4ccncc4)c3)cs2)c1 [Compound 84, 3-(1-amino-2-methyl-1-oxopropan-2-yl)-N-(2-oxo-2-((4-(3-(pyridin-4-yl)phenyl)thiazol-2-yl)amino)ethyl)benzamide]	>95	0.1 to 1	1 to 5	> 90	
CSCC[C@H](NC(=O)c1ccc2c(c1)C(C)(O)C(=O)N2)C(=O)Nc1nc(-c2ccccc2)cs1 (stereo partly drawn) [Compound 85, 3-hydroxy-3-methyl-N—((S)-4-(methylthio)-1-oxo-1-((4-phenylthiazol-2-yl)amino)butan-2-yl)-2-oxoindoline-5-carboxamide]	>80	> 5	> 5	> 60	
CC(C)(N)c1cccc(C(=O)NCC(=O)Nc2nc(-c3cccc(-c4ccncc4)c3)cs2)c1 [Compound 86, 3-(2-aminopropan-2-yl)-N-(2-oxo-2-((4-(3-(pyridin-4-yl)phenyl)thiazol-2-yl)amino)ethyl)benzamide]	>80	> 5	1 to 5	> 60	

Compound	BRM Max % Inhibition [1] [%]	IC50 [1] [µM]	IC50 [2] [µM]	Emax [2] [%]	BRG1 Max % Inhibition [2] [%]
CC(C)(C#N)c1cccc(C(=O)NCC(=O)Nc2nc(-c3cccc(-c4ccncc4)c3)cs2)c1 [Compound 87, 3-(2-cyanopropan-2-yl)-N-(2-oxo-2-((4-(3-(pyridin-4-yl)phenyl)thiazol-2-yl)amino)ethyl)benzamide]	>80	0.1 to 1	> 5	< 30	
Cc1cc(C)c(C(C)(C)CN)cc1C(=O)NCC(=O)Nc1nc(-c2cccc(-c3ccncc3)c2)cs1 [Compound 89]	>80	1 to 5	> 5	> 30	
Cc1cc(-c2cccc(-c3csc(NC(=O)CNC(=O)c4cccc(C(C)(C)C(C)C)c4)n3)c2)cc(C)n1 [Compound 90]	>60	1 to 5	> 5	< 30	
C[C@H](N)C(C)(C)c1cccc(C(=O)NCC(=O)Nc2nc(-c3cccc(-c4ccncc4)c3)cs2)c1 [Compound 91]	>50	1 to 5	> 5	> 30	
Cc1cc(-c2cccc(-c3csc(NC(=O)CNC(=O)c4ccc(C)c(C(C)(C)CN)c4)n3)c2)cc(C)n1 [Compound 92]	>95	< 0.1	0.1 to 1	> 95	
Cc1cc(-c2cccc(-c3csc(NC(=O)CNC(=O)c4cccc(C(C)(C)CO)c4)n3)c2)nc(C)n1 [Compound 93]	>95	< 0.1	0.1 to 1	> 90	
Cc1cc(-c2cccc(-c3csc(NC(=O)CNC(=O)c4cccc(C(C)(C)CO)c4)n3)c2)nc(C)n1 [Compound 94]	>95	< 0.1	< 0.1		>95
Cc1nccc(-c2cccc(-c3csc(NC(=O)CNC(=O)c4cccc(C(C)(C)CN)c4)n3)c2)n1 [Compound 95]	>95	< 0.1	0.1 to 1	> 90	
CC1(C(N)=O)CCc2ccc(C(=O)NCC(=O)Nc3nc(-c4cccc(-c5ccncc5)c4)cs3)cc21 (stereo not shown) [Compound 96]	>95	0.1 to 1	1 to 5	> 90	
Cc1cc(C(=O)NCC(=O)Nc2nc(-c3cccc(-c4ccncc4)c3)cs2)cc(C(C)(C)CN)c1C [Compound 97]	>90	0.1 to 1	1 to 5	> 70	
Cc1cc(-c2cccc(-c3csc(NC(=O)CNC(=O)c4cccc(C(C)(C)CN)c4)n3)c2)ncn1 [Compound 98]	>95	0.1 to 1	1 to 5	> 70	
C[C@@H]1CN(c2cccc(-c3csc(NC(=O)CNC(=O)c4cccc(C(C)(C)CN)c4)n3)c2)C[C@H](C)O1 [Compound 99]	>95	< 0.1	0.1 to 1	> 90	
Cc1nccc(-c2cccc(-c3csc(NC(=O)CNC(=O)c4cccc(C(C)(C)CN)c4)n3)c2)n1 [Compound 100]	>95	< 0.1	< 0.1		>95
CC1(CN)CCc2ccc(C(=O)NCC(=O)Nc3nc(-c4cccc(-c5ccncc5)c4)cs3)cc21 (stereo not shown) [Compound 101]	>90	0.1 to 1	1 to 5	> 70	
CC1(CO)CCc2ccc(C(=O)NCC(=O)Nc3nc(-c4cccc(-c5ccncc5)c4)cs3)cc21 (stereo not shown) [Compound 102]	>95	< 0.1	0.1 to 1	> 80	

— patent publication US12685735B2 (Foghorn Therapeutics Inc., priority 2020, dated 2026)
